Assay results published in patent publication US6566408B1, “Aqueous surfactant compositions of monoalkyl phosphate ester salts and amphoteric surfactants” (Rhodia, Inc., priority 2000, dated 2003).

Test system: human subjects (skin of the back)
Assay: 14-Day Cumulative Irritation Assay (occlusive patch, comparative dermal irritation potential)
Assay type: in vivo
Excerpt: In the following study, the tested solutions were at a total surfactant actives content of 0.5% by weight. […] 14-Day Cumulative Irritation Assay of the Comparitive Dermal Irritation Potential of a Series of Test Articles The objective of this study was to determine the comparative dermal irritation potential of a series of nine (9) test articles on twenty-five (25) subjects using a 14-Day Cumulative Irritation Assay. Twenty-five (25) subjects, 1 male and 24 females, ranging in age from 18 to 55 years were empaneled for this test. […] Each day during the duration of the study, patches were removed and the sites were evaluated for irritation using the 6-point scoring system outlined below. […] This procedure was repeated at each visit for a period of fourteen (14) consecutive days, excluding Sundays (Saturday's patches were worn until Monday. Monday's irritation scores were recorded as Sunday's scores and Sunday was counted as an exposure day). Patch test sites were evaluated daily and scores were recorded on a Cumulative Irritation Patch Test recording form. Individual test article scores were calculated via summation of the results for each day. […] The following day's score was “carried back” and recorded for the missed visit day. […]

## CCCCCCCCCCCCOS(=O)(=O)[O-].[Na+] [Test Article #9, Sodium lauryl sulphate]
Sum of total cumulative score for 14 days, 22 subjects, highest possible 924, solutions at 0.5% total surfactant actives
  Total Cum. Irrit. Scores: 844.5
Total divided by 22 subjects, highest possible 42, 14 days, 0.5% total surfactant actives
  Mean Cum. Irrit. Scores: 38.4
